# Source: the supplement of paper PMC11061612
# How the values were obtained:
# Experiment in all cases: Bliss excess, mean over the matrix (fraction); higher = more synergy
# [1] = tested on: MFH-ino (Other Solid Carcinomas)
# Summary of the method: (§1)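 After 24 hours at 37°C and 5% CO2 in 1536-well plates, cells in DMEM/F12 or RPMI plus 10% FBS received two-drug dose matrices for 72 hours. Viability came from CellTiter-Glo 2.0 luminescence and was scaled as inhibition, anchored at 0 by vehicle wells and at 1 by blank wells. Combination Emax is taken as the second-highest inhibition in the matrix, and Bliss excess as the observed combination effect less EA + EB − EA·EB, with EA and EB the single-agent effects.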
# [2] = tested on: JiyoyeP-2003 (Burkitt's Lymphoma)
# Summary of the method: as §1
# [3] = tested on: MDA-MB-157 (Breast Carcinoma)
# Summary of the method: as §1
# IGR-1 (Melanoma) = tested on: IGR-1 (Melanoma)
# Summary of the method: as §1
# CAL-78 (Chondrosarcoma) = tested on: CAL-78 (Chondrosarcoma)
# Summary of the method: as §1
# [4] = tested on: G-292-Clone-A141B1 (Osteosarcoma)
# Summary of the method: as §1
# [5] = tested on: NCI-H1793 (Lung Adenocarcinoma)
# Summary of the method: as §1
# [6] = tested on: KARPAS-620 (Plasma Cell Myeloma)
# Summary of the method: as §1
# [7] = tested on: 697 (B-Lymphoblastic Leukemia)
# Summary of the method: as §1
# [8] = tested on: CFPAC-1 (Pancreatic Carcinoma)
# Summary of the method: as §1
# [9] = tested on: MDA-MB-231 (Breast Carcinoma)
# Summary of the method: as §1
# [10] = tested on: C3A (Hepatocellular Carcinoma)
# Summary of the method: as §1
# [11] = tested on: SW780 (Bladder Carcinoma)
# Summary of the method: as §1
# SN12C (Kidney Carcinoma) = tested on: SN12C (Kidney Carcinoma)
# Summary of the method: as §1
# [12] = tested on: KATOIII (Gastric Carcinoma)
# Summary of the method: as §1
# [13] = tested on: EM-2 (Chronic Myelogenous Leukemia)
# Summary of the method: as §1
# [14] = tested on: KM-H2 (Hodgkin's Lymphoma)
# Summary of the method: as §1
# [15] = tested on: HPAC (Pancreatic Carcinoma)
# Summary of the method: as §1
# [16] = tested on: NALM-6 (B-Lymphoblastic Leukemia)
# Summary of the method: as §1
# [17] = tested on: SNU-C5 (Colorectal Carcinoma)
# Summary of the method: as §1
Compound,Bliss excess [1],Bliss excess [2],Bliss excess [3],Bliss excess (IGR-1 (Melanoma)),Bliss excess (CAL-78 (Chondrosarcoma)),Bliss excess [4],Bliss excess [5],Bliss excess [6],Bliss excess [7],Bliss excess [8],Bliss excess [9],Bliss excess [10],Bliss excess [11],Bliss excess (SN12C (Kidney Carcinoma)),Bliss excess [12],Bliss excess [13],Bliss excess [14],Bliss excess [15],Bliss excess [16],Bliss excess [17]
"NC1(C(=O)N[C@@H](CCO)c2ccc(Cl)cc2)CCN(c2ncnc3[nH]ccc23)CC1 [Capivasertib] + CCN(CCO)CCCOc1ccc2c(Nc3cc(CC(=O)Nc4cccc(F)c4)[nH]n3)ncnc2c1 [AZD2811] (first compound max 10 µM, 7x7, partner max 1 µM)",-0.0542,-0.0303,0.0354,0.0077,0.024,0.0116,-0.0515,0.0272,-0.0593,0.0281,-0.0154,-0.0156,0.015,-0.0536,-0.0213,-0.0463,-0.0195,-0.049,-0.0987,-0.0571
"NC1(C(=O)N[C@@H](CCO)c2ccc(Cl)cc2)CCN(c2ncnc3[nH]ccc23)CC1 [Capivasertib] + CC(C)n1c(=O)n(C)c2cnc3cc(F)c(-c4ccc(OCCCN5CCCCC5)nc4)cc3c21 [AZD1390] (first compound max 10 µM, 7x7, partner max 0.3 µM)",-0.0771,-0.024,-0.0306,-0.0607,-0.0382,-0.0453,-0.0745,-0.0273,-0.0197,-0.0828,-0.102,-0.0724,-0.0715,-0.0454,-0.118,-0.0446,-0.0554,-0.0699,-0.0863,-0.052
"CN(CCO)CC[C@H](CSc1ccccc1)Nc1ccc(S(=O)(=O)NC(=O)c2ccc(N3CCC([C@@H](O)c4ccccc4-c4ccc(Cl)cc4)CC3)cc2)cc1S(=O)(=O)C(F)(F)F [AZD4320] + CCN(CCO)CCCOc1ccc2c(Nc3cc(CC(=O)Nc4cccc(F)c4)[nH]n3)ncnc2c1 [AZD2811] (first compound max 1 µM, 7x7, partner max 1 µM)",-0.0406,0.057,0.0101,0.148,0.117,0.0019,-0.0421,0.0899,0.0021,-0.0754,0.0602,-0.0487,0.028,-0.0249,-0.0434,-0.0327,-0.0035,0.0486,0.0868,0.0121
"COc1cccc(OCCCN)c1-c1cc(Nc2cnc(C#N)cn2)n[nH]1 [Prexasertib] + CN(C)CCCOc1ccc(-c2ccc3ncc4c(c3c2)n(C2CCOCC2)c(=O)n4C)cn1 [AZD0156] (first compound max 1 µM, 7x7, partner max 1 µM)",0.0142,-0.0003,-0.0226,0.0399,-0.0165,-0.0849,-0.0227,0.0277,-0.0087,0.0232,-0.0306,0.0035,-0.0232,-0.0387,-0.0053,-0.0279,-0.0337,0.0404,0.0002,-0.0292
